Measured values reported in publication PMC10564737, “Structure-based design of a phosphotyrosine-masked covalent ligand targeting the E3 ligase SOCS2” (Nature Communications, 2023).
Where “and” joins values, the source holds several entries; their conditions need not be identical. Identical values can stand only once. Like-named read-outs stand apart in the source and are kept apart here.

Molecular target: T1, SBC2 (Homo sapiens, UniProt O14508)
T1 construct: SOCS2 (amino acids 32–198); His6 (N, cleaved yes); made in house; host or cells: E. coli BL21(DE3)
T1 sequence (O14508 32-198): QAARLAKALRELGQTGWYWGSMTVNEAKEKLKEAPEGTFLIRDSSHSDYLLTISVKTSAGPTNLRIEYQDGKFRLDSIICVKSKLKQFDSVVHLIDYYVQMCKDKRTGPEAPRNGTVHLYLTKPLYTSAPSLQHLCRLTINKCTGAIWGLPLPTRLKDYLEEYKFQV
T1 sequence (Q15370 1-104 partner limits assumed): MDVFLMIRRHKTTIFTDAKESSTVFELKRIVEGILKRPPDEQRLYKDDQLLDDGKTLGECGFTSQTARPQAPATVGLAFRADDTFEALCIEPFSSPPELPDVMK
T1 sequence (Q15369 17-112 partner limits assumed): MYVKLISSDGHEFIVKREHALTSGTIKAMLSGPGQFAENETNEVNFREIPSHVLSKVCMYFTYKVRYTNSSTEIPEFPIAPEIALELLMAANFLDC
Test: Covalent fluorescence polarization (FP) probe displacement assay
Format: binding
Conditions: for kinact/KI: read-out: Slope: Kinact/Ki (converted); for Anisotropy based on Raw Data (485): Cycle 7 (30 min); for Fb, fraction bound: Cycle 2 (5 min); for Anisotropy data 485,520,520 / Normalised anisotropy (0 nM MN551 = 1, free probe = 0) / Anisotropy normalised (0 nM MN551 = 1, free probe = 0): n=1
Description: With the specific covalent modification of Cys111 established, we decided to fully characterize MN551 as a covalent SOCS2 inhibitor. […] (Fig. 2g, h, Supplementary Fig. 9). Due to the covalent nature of the competing inhibitor, a time-dependent reduction in the fraction of protein-bound probe is observed. […] This value illustrates reasonable specificity for a covalent inhibitor, with nonetheless scope for future optimization. In addition to characterizing the kinetic covalency parameters, we have also assessed the stability of the MN551 by monitoring its reactivity (half-life >70 min) with reduced glutathione (GSH) (Supplementary Fig. 10)[35].
To monitor the SBC2-ligand binding kinetics we designed a fluorescein-labeled small-molecule probe - compound 26. The fluorescence polarization (anisotropy) of a threefold serial dilution of 50 µM SBC2 in 10 nM of the probe in 100 mM HEPES pH 7.5, 50 mM NaCl, 0.5 mM TCEP, 2% DMSO was measured to determine the KL (Supplementary Fig. 9A) (BMG Labtech PHERAstar – firmware v1.33). Protein titration and the curves were fitted using GraphPad Prism 9, using one-site fitting models to determine the probe binding constant, KL. Samples were run in triplicate in 384 well plates, using a total volume per well of 16 μL. The bound fraction of the probe is measure using the equation:1 Fb=Af−A/Af−Ab Where,
A time-dependent reduction in probe anisotropy were measured for a 2-fold serial dilution of […] compound MN551 in 10 nM probe +300 μM SBC2. To determine the initial reversible binding affinity, the initial bound fraction of the probe at time = 0, Fbo (the y-intercept in Fb v/s Time plot, Supplementary Fig. 9B) was plotted against MN551 concentration, and the obtained IC50 is then converted to Ki (Supplementary Fig. 9C)[17]. The slope from Fb versus time graph when divided by Fbo gives rate of covalency, kobs. A plot of kobs v/s MN551 concentration using Michaelis–Menten model of GraphPad Prism 9, provides the parameters kinact (maximum potential rate of inactivation) and KI (concentration of MN551 at which kobs = kinact/2) (Supplementary Fig. 9D, E).
The observed first-order rate constant, kobs is related to KI and kinact by the equation:2 kobs=kinactI/KI+I
At [I]«[KI] the above equation is converted to3 […]
The slope from the plot of kobs against concentration of MN551 gives us the covalent efficiency parameter kinact/KI (Supp Fig. 9F)[30],[33].

[1] = MN551 12.599 nM, Cycle 11 (50 min)
[2] = MN551 12.599 nM, Cycle 18 (85 min)
[3] = MN551 17.6386 nM, Cycle 11 (50 min)
[4] = MN551 17.6386 nM, Cycle 12 (55 min)
[5] = MN551 17.6386 nM, Cycle 18 (85 min)
[6] = MN551 24.694 nM, Cycle 11 (50 min)
[7] = MN551 24.694 nM, Cycle 12 (55 min)
[8] = MN551 24.694 nM, Cycle 18 (85 min)
[9] = MN551 34.5716 nM, Cycle 11 (50 min)
[10] = MN551 34.5716 nM, Cycle 12 (55 min)
[11] = MN551 34.5716 nM, Cycle 18 (85 min)

O=C(CCl)Nc1cccc(CNC(=O)[C@H](Cc2ccc(OP(=O)(O)O)cc2)NC(=O)Cc2ccc(F)cc2)c1 [MN551]
kinact (FP competition assay to evaluate MN551 covalent efficiency, experiment n=1, from Michaelis-Menten fit (Vmax), read-out: Kinact (converted)): 0.0145 min⁻¹ | kinact (FP competition assay to evaluate MN551 covalent efficiency, experiment n=1, read-out: Kinact (converted)): 0.0145 min⁻¹ | kinact/KI (FP competition assay to evaluate MN551 covalent efficiency, experiment n=1, slope of linear fit, MN551 below Ki titration): 55.8 M⁻¹ s⁻¹ | kinact/KI (FP competition assay to evaluate MN551 covalent efficiency, experiment n=1, slope of linear fit): 55.8 M⁻¹ s⁻¹ | kinact (FP competition assay, replicate n=3, read-out: Kinact (min-1) (converted)): 0.0174 min⁻¹ | kinact (FP competition assay, replicate n=3, read-out: Kinact (s-1)): 0.0174 min⁻¹ | kinact/KI (FP competition assay, replicate n=3): 61.5 M⁻¹ s⁻¹ | Anisotropy based on Raw Data (485) (MN551 12.207 nM): 281.1 and 280.8 and 279.5 | Fb, fraction bound (MN551 12.207 nM): 0.9935 and 1.0185 and 1.023 | Anisotropy (MN551 12.207 nM, Cycle 11 (50 min)): 276.9 and 277 and 280.3 | Anisotropy data 485,520,520 (MN551 12.207 nM, Cycle 18 (85 min)): 272.5 and 273.4 and 274.8 | Anisotropy based on Raw Data (485) (MN551 12.599 nM): 275 and 272 and 270 | Normalised anisotropy (0 nM MN551 = 1, free probe = 0) (MN551 12.599 nM, Cycle 13 (60 min)): 0.9972 and 0.9668 and 1.008 | Normalised anisotropy (0 nM MN551 = 1, free probe = 0) (MN551 12.599 nM, Cycle 14 (65 min)): 1.04 and 1.018 and 1.012 | Fb, fraction bound (MN551 12.599 nM): 1.02 and 0.9926 and 1.014 | Anisotropy [1]: 278.4 and 278.3 and 275.7 | Fb [1]: 1.027 and 1.013 and 1.017 | Fb (MN551 12.599 nM, Cycle 12 (55 min)): 1.006 and 1.0163 and 0.9962 | Anisotropy data 485,520,520 [2]: 273.9 and 272.6 and 271.8 | Anisotropy normalised (0 nM MN551 = 1, free probe = 0) [2]: 1.0213 and 1.004 and 1.0408 | Anisotropy normalised (0 nM MN551 = 1, free probe = 0) (MN551 12.599 nM, Cycle 19 (90 min)): 1.03 and 1.012 and 1.015 | Anisotropy normalised (0 nM MN551 = 1, free probe = 0) (MN551 12.599 nM, Cycle 20 (95 min)): 0.9942 (2×) and 0.9893 | Anisotropy based on Raw Data (485) (MN551 17.6386 nM): 276.7 and 273.3 and 271.3 | Normalised anisotropy (0 nM MN551 = 1, free probe = 0) (MN551 17.6386 nM, Cycle 13 (60 min)): 1.033 and 0.9926 and 1.023 | Normalised anisotropy (0 nM MN551 = 1, free probe = 0) (MN551 17.6386 nM, Cycle 14 (65 min)): 1.058 and 1.0113 and 1.0096 | Fb, fraction bound (MN551 17.6386 nM): 1.066 and 1.015 and 1.047 | Anisotropy [3]: 282.4 and 277.6 and 277.2 | Fb [3]: 1.065 and 1.007 and 1.031 | Anisotropy [4]: 282.3 and 277.4 and 277.1 | Fb [4]: 1.042 and 1.027 and 1.02 | Anisotropy data 485,520,520 [5]: 277.5 and 272.7 and 272.2 | Anisotropy normalised (0 nM MN551 = 1, free probe = 0) [5]: 1.056 and 1.005 and 1.045 | Anisotropy normalised (0 nM MN551 = 1, free probe = 0) (MN551 17.6386 nM, Cycle 19 (90 min)): 1.075 and 1.012 and 1.027 | Anisotropy normalised (0 nM MN551 = 1, free probe = 0) (MN551 17.6386 nM, Cycle 20 (95 min)): 1.027 and 0.9971 and 1.019 | Anisotropy based on Raw Data (485) (MN551 24.4141 nM): 282.9 and 279.8 and 282 | Fb, fraction bound (MN551 24.4141 nM): 1.016 and 1.08 and 1.041 | Anisotropy (MN551 24.4141 nM, Cycle 11 (50 min)): 280.9 and 281.2 and 279.7 | Anisotropy (MN551 24.4141 nM, Cycle 12 (55 min)): 280 | Anisotropy data 485,520,520 (MN551 24.4141 nM, Cycle 18 (85 min)): 276.9 and 277.7 and 276.3 | Anisotropy based on Raw Data (485) (MN551 24.694 nM): 274.8 and 272.6 and 276.9 | Normalised anisotropy (0 nM MN551 = 1, free probe = 0) (MN551 24.694 nM, Cycle 13 (60 min)): 1.02 and 0.977 and 1.0251 | Normalised anisotropy (0 nM MN551 = 1, free probe = 0) (MN551 24.694 nM, Cycle 14 (65 min)): 1.023 and 1.014 and 1.022 | Fb, fraction bound (MN551 24.694 nM): 1.025 and 1.008 and 1.0546 | Anisotropy [6]: 280.6 and 275.8 and 277.4 | Fb [6]: 1.048 and 0.9896 and 1.033 | Anisotropy [7]: 282.7 and 278.3 and 277.5 | Fb [7]: 1.046 and 1.035 and 1.024 | Anisotropy data 485,520,520 [8]: 274.3 and 273.5 and 273.4 | Anisotropy normalised (0 nM MN551 = 1, free probe = 0) [8]: 1.025 and 1.012 and 1.057 | Anisotropy normalised (0 nM MN551 = 1, free probe = 0) (MN551 24.694 nM, Cycle 19 (90 min)): 1.038 and 1.023 and 1.016 | Anisotropy normalised (0 nM MN551 = 1, free probe = 0) (MN551 24.694 nM, Cycle 20 (95 min)): 1.035 and 1.007 and 1.013 | Anisotropy based on Raw Data (485) (MN551 34.5716 nM): 274.4 and 276.1 and 281.6 | Normalised anisotropy (0 nM MN551 = 1, free probe = 0) (MN551 34.5716 nM, Cycle 13 (60 min)): 1.034 and 1.023 and 1.046 | Normalised anisotropy (0 nM MN551 = 1, free probe = 0) (MN551 34.5716 nM, Cycle 14 (65 min)): 1.052 and 1.027 and 1.028 | Fb, fraction bound (MN551 34.5716 nM): 1.054 and 1.044 and 1.086 | Anisotropy [9]: 283.1 and 279.4 and 279.3 | Fb [9]: 1.072 and 1.024 and 1.051 | Anisotropy [10]: 281.9 and 279 and 279.2 | Fb [10]: 1.038 and 1.042 and 1.04 | Anisotropy data 485,520,520 [11]: 278.1 and 277 and 275.1 | Anisotropy normalised (0 nM MN551 = 1, free probe = 0) [11]: 1.062 and 1.046 and 1.074 | Anisotropy normalised (0 nM MN551 = 1, free probe = 0) (MN551 34.5716 nM, Cycle 19 (90 min)): 1.076 and 1.071 and 1.037 | Anisotropy normalised (0 nM MN551 = 1, free probe = 0) (MN551 34.5716 nM, Cycle 20 (95 min)): 1.051 and 1.0281 and 1.04 | Anisotropy based on Raw Data (485) (MN551 48.4003 nM): 280.1 and 278.6 (2×) | Normalised anisotropy (0 nM MN551 = 1, free probe = 0) (MN551 48.4003 nM, Cycle 13 (60 min)): 1.018 and 0.9871 and 0.9961 | Normalised anisotropy (0 nM MN551 = 1, free probe = 0) (MN551 48.4003 nM, Cycle 14 (65 min)): 1.029 and 1 and 1.015
